The experiment addresses T1, human vasopressin V1a receptor subtype (Homo sapiens, UniProt P37288).
T1 construct: host or cells: CHO cells (pZeoSV vector for the Thibonnier line)
Nature of the experiment: Vasopressin binding in Chinese Hamster Ovary cell membranes expressing human vasopressin V1a subtype receptors. The note with it: 100 nM, CHO cell membranes, [3H]Manning ligand, values without parentheses. As for the experimental part: Vasopressin Binding in Chinese Hamster Ovary Cell Membranes Expressing Human Vasopressin V1a Subtype Receptors
The trypsin is removed by aspiration and the cells dislodged by tapping. Cell Culture medium (e.g. 30 mL for 1:30 split) is immediately added and mixed well to inactivate trypsin. 1 mL of detached cells is added to new culture flasks containing fresh cell culture medium (e.g., into 25 mL per T-150 flask), and mixed gently. The cells are incubated at 37° C. in 5% CO2. The medium is changed at 3 to 4 days interval (or as appropriate). […] All steps are done under sterile conditions. B. Membrane Preparation: The cells are washed twice gently with Hank's Balanced Salt solution (e.g,. use 10 mL per T-150 flask). […] The contents are transferred to centrifuge tubes (50 mL) kept in an ice bath. All subsequent steps are done at 4° C. The tubes are centrifuged at 300×g for 15 min (1380 rpm on SORVAL, Model RT6000D, using the rotor for 50 mL tubes). The supernatant is discarded and the cells suspended in homogenizing buffer(10 mM Tris-HCl containing 0.25 M sucrose and 1 mM EDTA, pH 7.4) ensuring that the volume of the buffer is about ten times the volume of the cell pellet. The cells are pooled into a centrifuge tube (50 mL) and homogenized with a Polytron at setting 6 for 10 sec. The homogenate is transferred into a Potter-Elvjehm homogenizer and homogenized with 3 strokes. The homogenate is centrifuged at 1500×g for 10 min at 4° C. (3100 rpm using SORVAL, model RT6000D, using the rotor for 50 mL tubes). The pellet is discarded. The supernatant is centrifuged at 100,000×g for 60 min. at 4° C. (Beckman L8-80M ultracentrifuge; spin at 37,500 rpm with rotor type 70 Ti for 50 mL tubes; 38,000 rpm with type 80Ti for 15 mL tubes; or 35,800 rpm with rotor type 45Ti). The supernantant is discarded and the pellet suspended in 3 to 4 mL of Tris buffer (50 mM TRIS-HCl, pH 7.4). The protein content is estimated by the Bradford or Lowry method. The volume of the membrane suspension is adjusted with the membrane buffer (50 mM Tris-HCl containing 0.1% BSA and 0.1 mM PMSF) to give 3.0 mg/mL (or as appropriate) of protein. The membranes are aliquoted and stored at −70° C. C. Radioligand Binding Assay: In wells of a 96-well format microtiter plate, is added 90, 110 or 130 μL (to make up a final volume of 200 μL) of assay buffer containing 50 mM of Tris-HCl (pH 7.4), BSA (heat inactivated, protease-free), […], 1 mg % aprotinin, 1 mg % leupeptin, 2 mg % 1,10-phenanthroline, 10 mg % trypsin inhibitor, and 0.1 mM PMSF. The inhibitors are added on the day of the experiment. The components are mixed at room temperature, and then kept in ice bath following adjustment of the pH to 7.4. […] 20 μL of 50% DMSO is added for Manning and other peptide ligands and the assay buffer volume is adjusted accordingly. To each well is added 50 μL of frozen membrane suspension thawed immediately prior to use and diluted in the assay buffer to the required concentration (equivalent to 25 to 50 μg of protein/well as needed). 20 μL of 8 nM [^3H]Manning ligand in the assay buffer, prepared just before use, is added, and incubated at room temperature for 60 min. shaking the plate on a mechanical shaker for the first 15 min. The incubation is stopped by rapid filtration of the plate contents followed by wash with ice-cold buffer (50 mM Tris-HCl, pH 7.4) using a cell harvester (Tomtek and Printed filtermat-B filter paper). The filter paper is thoroughly dried (7–12 min. in a microwave oven) and impregnated with MeltiLex B/H melt-on scintillation wax sheets and the radioactivity counted in a betaplate scintillation counter.
Binding data is either reported as percent inhibition at a certain concentration or if an IC50 was calculated, as a nanomolar concentration.

T1 sequence (P37288 whole entry): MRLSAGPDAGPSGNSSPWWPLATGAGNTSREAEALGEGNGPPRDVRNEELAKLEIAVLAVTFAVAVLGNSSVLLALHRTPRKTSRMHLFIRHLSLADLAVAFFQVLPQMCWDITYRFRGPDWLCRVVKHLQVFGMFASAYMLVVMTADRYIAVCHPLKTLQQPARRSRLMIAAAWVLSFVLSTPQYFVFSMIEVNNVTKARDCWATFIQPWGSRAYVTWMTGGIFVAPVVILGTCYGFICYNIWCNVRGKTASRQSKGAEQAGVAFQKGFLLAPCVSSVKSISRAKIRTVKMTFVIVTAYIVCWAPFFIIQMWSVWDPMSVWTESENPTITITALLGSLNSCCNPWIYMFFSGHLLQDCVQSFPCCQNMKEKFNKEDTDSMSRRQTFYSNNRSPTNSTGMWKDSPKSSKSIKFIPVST

Regarding `COc1cccc(-c2cc(OC)c(C(=O)N3Cc4ccc(C(=O)N5CCC[C@H]5CN5CCCC5)n4Cc4ccccc43)cc2Cl)c1` [Example 268, {10-[(6-Chloro-3,3′-dimethoxy[1,1′-biphenyl]-4-yl)carbonyl]-10,11-dihydro-5H-pyrrolo[2,1-c][1,4]benzodiazepin-3-yl}[(2S)-2-(1-pyrrolidinylmethyl)pyrrolidinyl]methanone], the “V1a % inhibition @ 100 nM” value is recorded as 6%.
The same measure, in the same setting: the value for `O=C(c1ccc2n1Cc1ccccc1N(C(=O)c1ccc(-c3cccc4ccccc34)cc1Cl)C2)N1CCC(N2CCCCC2)CC1` [Example 121] was 0%; that for `COc1cccc(-c2ccc(C(=O)N3Cc4ccc(C(=O)N5CC[C@@H](N(C)C)C5)n4Cc4ccccc43)cc2OC)c1` [Example 283, {10-[(2,3′-Dimethoxy[1,1′-biphenyl]-4-yl)carbonyl]-10,11-dihydro-5H-pyrrolo[2,1-c][1,4]benzodiazepin-3-yl}[(3R)-3-(dimethylamino)pyrrolidinyl]methanone] was 40%.
Turning to `Cc1ccccc1-c1ccc(C(=O)N2Cc3ccc(C(=O)N4CCC[C@H]4CN4CCCC4)n3Cc3ccccc32)cc1` [Example 264, {10-[(2′-Methyl[1,1′-biphenyl]-4-yl)carbonyl]-10,11-dihydro-5H-pyrrolo[2,1-c][1,4]benzodiazepin-3-yl}[(2S)-2-(1-pyrrolidinylmethyl)pyrrolidinyl]methanone], the “V1a % inhibition @ 100 nM” value worked out at 67%.
A word on the inhibition: it is the change of the read-out against control, counted positive when it falls. As for `COc1cccc(-c2cc(OC)c(C(=O)N3Cc4ccc(C(=O)N5CCC(N6CCCC6)CC5)n4Cc4ccccc43)cc2Cl)c1` [Example 143, {10-[(6-Chloro-3,3′-dimethoxy[1,1′-biphenyl]-4-yl)carbonyl]-10,11-dihydro-5H-pyrrolo[2,1-c][1,4]benzodiazepin-3-yl}[4-(1-pyrrolidinyl)-1-piperidinyl]methanone], the inhibition at 0.1 µM is -3%.
In the case of `COc1cccc(-c2ccc(C(=O)N3Cc4ccc(C(=O)N5CCC(N6CCCCC6)CC5)n4Cc4ccccc43)cc2C)c1` [Example 114, {10-[(2-Methyl-3′-methoxy[1,1′-biphenyl]-4-yl)carbonyl]-10,11-dihydro-5H-pyrrolo[2,1-c][1,4]benzodiazepin-3-yl}[4-(1-piperidinyl)-1-piperidinyl]methanone], the inhibition at 0.1 µM is 11%.
Same read-out and setting: the figure for `COc1cc(-c2ccccc2C)c(Cl)cc1C(=O)N1Cc2ccc(C(=O)NCCN3CCCCC3)n2Cc2ccccc21` [Example 155, 10-[(6-Chloro-3-methoxy-2′-methyl[1,1′-biphenyl]-4-yl)carbonyl]-N-[2-(1-piperidinyl)ethyl]-10,11-dihydro-5H-pyrrolo[2,1-c][1,4]benzodiazepine-3-carboxamide] is 0%; for `COc1ccccc1-c1ccc(C(=O)N2Cc3ccc(C(=O)N4CCC(N5CCCCC5)CC4)n3Cc3ccccc32)cc1C` [Example 112, {10-[(2-Methyl-2′-methoxy[1,1′-biphenyl]-4-yl)carbonyl]-10,11-dihydro-5H-pyrrolo[2,1-c][1,4]benzodiazepin-3-yl}[4-(1-piperidinyl)-1-piperidinyl]methanone] it is 8%.
As to “{10-[(2,2′-Dimethoxy[1,1′-biphenyl]-4-yl)carbonyl]-10,11-dihydro-5H-pyrrolo[2,1-c][1,4]benzodiazepin-3-yl}(4-isopropyl-1-piperazinyl)methanone [Example 244]”, the “V1a % inhibition @ 100 nM” value is on record as 44%.
On to `COc1cc(C(=O)N2Cc3ccc(C(=O)NCCCn4ccnc4)n3Cc3ccccc32)ccc1-c1ccccc1C` [Example 128, N-[3-(1H-Imidazol-1-yl)propyl]-10-[(2-methoxy-2′-methyl[1,1′-biphenyl]-4-yl)carbonyl]-10,11-dihydro-5H-pyrrolo[2,1-c][1,4]benzodiazepine-3-carboxamide], for which the inhibition at 0.1 µM was 18%.
On the same count and under the same terms, the figure for `COc1cccc(-c2cc(OC)c(C(=O)N3Cc4ccc(C(=O)N5CCC(N6CCCCC6)CC5)n4Cc4ccccc43)cc2Cl)c1` [Example 117, {10-[(6-Chloro-3-methoxy-3′-methoxy[1,1′-biphenyl]-4-yl)carbonyl]-10,11-dihydro-5H-pyrrolo[2,1-c][1,4]benzodiazepin-3-yl}[4-(1-piperidinyl)-1-piperidinyl]methanone] is -3%.
On to `COc1cc(C(=O)N2Cc3ccc(C(=O)N(C)CCCN(C)C)n3Cc3ccccc32)ccc1-n1c(C)ccc1C` [Example 310, N-[3-(Dimethylamino)propyl]-10-[4-(2,5-dimethyl-i H-pyrrol-1-yl)-3-methoxybenzoyl]-N-methyl-10,11-dihydro-5H-pyrrolo[2,1-c][1,4]benzodiazepine-3-carboxamide], for which the “V1a % inhibition @ 100 nM” value is recorded as 4%.
For `COc1ccccc1-c1ccc(C(=O)N2Cc3ccc(C(=O)NCCCn4ccnc4)n3Cc3ccccc32)cc1` [Example 126, N-[3-(1H-Imidazol-1-yl)propyl]-10-[(2′-methoxy[1,1′-biphenyl]-4-yl)carbonyl]-10,11-dihydro-5H-pyrrolo[2,1-c][1,4]benzodiazepine-3-carboxamide], the inhibition at 0.1 µM was 9%.
As for `COc1cc(C(=O)N2Cc3ccc(C(=O)N4CC[C@@H](N(C)C)C4)n3Cc3ccccc32)ccc1-c1cccc2ccccc12` [Example 276, [(3R)-3-(Dimethylamino)pyrrolidinyl]{10-[3-methoxy-4-(1-naphthyl)benzoyl]-10,11-dihydro-5H-pyrrolo[2,1-c][1,4]benzodiazepin-3-yl}methanone], the “V1a % inhibition @ 100 nM” value is listed as 4%.
On the same count and under the same terms, the figure for `COC(=O)c1ccc2c(c1)N(C(=O)c1ccc(-c3ccccc3C(F)(F)F)c(C)c1)Cc1cccn1C2` [Example 26, Methyl 10-{[2-methyl-2′-trifluoromethyl-[1,1′-biphenyl]-4-yl]carbonyl}-10,11-dihydro-5H-pyrrolo[2,1-c][1.4]benzodiazepine-8-carboxylate] is −3%.
On to `COc1cccc(-c2cc(OC)c(C(=O)N3Cc4ccc(C(=O)NCCCn5ccnc5)n4Cc4ccccc43)cc2Cl)c1` [Example 130, 10-[(6-Chloro-3,3′-dimethoxy[1,1′-biphenyl]-4-yl)carbonyl]-N-[3-(1H-imidazol-1-yl)propyl]-10,11-dihydro-5H-pyrrolo[2,1-c][1,4]benzodiazepine-3-carboxamide], for which the inhibition at 0.1 µM was 4%.
On the same count and under the same terms, the value for `Cc1ccccc1-c1ccc(C(=O)N2Cc3ccc(C(=O)N4CCC(N5CCCC5)CC4)n3Cc3ccccc32)cc1C` [Example 138, {10-[(2,2′-Dimethyl[1,1′-biphenyl]-4-yl)carbonyl]-10,11-dihydro-5H-pyrrolo[2,1-c][1,4]benzodiazepin-3-yl}[4-(1-pyrrolidinyl)-1-piperidinyl]methanone] was 47%; that for `COc1cc(C(=O)N2Cc3ccc(C(=O)NCCN4CCCCC4)n3Cc3ccccc32)ccc1-c1ccccc1C` [Example 154, 10-[(2-Methoxy-2′-methyl[1,1′-biphenyl]4-yl)carbonyl]-N-[2-(1-piperidinyl)ethyl]-10,11-dihydro-5H-pyrrolo[2,1-c][1,4]benzodiazepine-3-carboxamide] was 39%.
Take `COc1ccccc1-c1ccc(C(=O)N2Cc3ccc(C(=O)N4CCC(N5CCCC5)CC4)n3Cc3ccccc32)cc1OC` [Example 145, {10-[(2,2′-Dimethoxy[1,1′-biphenyl]4-yl)carbonyl]-10,11-dihydro-5H-pyrrolo[2,1-c][1,4]benzodiazepin-3-yl}[4-(1-pyrrolidinyl)-l-piperidinyl]methanone]: the “V1a % inhibition @ 100 nM” value is recorded as −4%.
